Data published in patent US10035759B2, “Method of chromatographic separation” (The Procter & Gamble Company, priority 2015, dated 2018).

Test system: human TRPM8
Test: TRPM8 FLIPR assay: intracellular Ca2+ level in HEK-293 cells stably transfected with human TRPM8
Assay type: cell-based
Conditions: dose 30 uM
Experimental: TRPM8 activation was determined by measuring intracellular calcium ion (Ca^2+) level from transfected cells with the TRPM8 receptor gene, as described in CELL CULTURE PROTOCOL EXAMPLE, the results of which are shown in TABLES 2 and 3.
To determine what effect, if any, test compounds had on TRPM8 (SEQ ID NO: 1) activation the protocols listed below were used.
TRPM8 Protocol-FLIPR Assay
To determine whether TRPM8 is activated, the intracellular calcium ion (Ca^2+) level was measured from transfected cells with the TRPM8 receptor sequence (SEQ ID NO: 1). HEK-293 (human embryonic kidney) cells stably transfected with human TRPM8 were grown in 15 ml growth medium (high glucose DMEM (Dulbecco's Modification of Eagle's Medium) supplemented with 10% FBS (fetal bovine serum), 100 ug/ml penicillin/streptomycin, 5 μg/ml blasticindin, and 100 μg/ml zeocin) in a 75 cm^2 flask for 3 days at 37° C. in a mammalian cell culture incubator set at 5% CO2. Cells were detached with addition of 2 ml of trypsin-EDTA buffer (GIBCO® 25200, Invitrogen, Grand Island, N.Y.) for about 2-3 min. Trypsin was inactivated by addition of 8 ml growth medium. Cells were transferred to a 50 ml tube and centrifuged at 850 rpm for 3 minutes to remove medium. After centrifugation, a pellet of cells was formed in the bottom of the tube separating them from the supernatant solution. […] Fluo-4 AM is a fluorescent dye used for quantifying cellular Ca^2+ concentrations in the 100 nM to 1 microM range. […]
The pelleted cells were re-suspended in 10 ml assay buffer and 90 al aliquots (˜50,000 cells) per well delivered to a 96-well assay plate containing 10 al of test compounds (1 mM in assay buffer, […]) or buffer control and incubated at room temperature for 30 minutes. After 30 minutes, a plate was placed into a fluorometric imaging plate reader (FLIPR TETRA from Molecular Devices, Sunnyvale, Calif.) and basal fluorescence recorded (excitation wave length 488 nm and emission wave length 510 nm). Then 20 μl of 180 μM solution of TRPM8 agonist WS5 coolant was added to the assay buffer and the fluorescence signals were automatically recorded by FLIPR. For determining the direct effect of test compounds on TRPM8, fluorescence was measured immediately after addition of each compound (TABLES 2 and 3). Additional discussion of the FLIPR method can be found in Smart et al., Characterization using FLIPR of human vanilloid VR1 receptor pharmacology, European Journal of Pharmacology 417, 51-58 (2001) and Liu et al., Development and validation of a platelet calcium flux assay using a fluorescent imaging plate reader, Analytical Biochemistry 357, 216-224 (2006).

CCOC(=O)CNC(=O)C1CC(C)CCC1C(C)C (stereo not shown) [WS-5, N-ethoxycarbonylmethyl-ρ-menthan-3-carboxamide]
100.0%: 50 sec % of WS5 (50 sec) | 3 min % of WS5 (3 min) | 5 min % of WS5 (5 min) | 10 min % of WS5 (10 min)
